Patent US11877574B2, “Herbicidal oil dispersion and method” (Arysta LifeScience Inc., priority 2018, dated 2024)

What was measured:
[1] = Active ingredient assay and recovery on storage (Table 2); assay type: physicochemical
[2] = Active ingredient assay on storage, SCB239-12 (Table 3); assay type: physicochemical

CCCCC(CC)COC(=O)COc1ccc(Cl)cc1C (stereo not shown) [MCPA, 2-ethylhexyl 2-(4-chloro-2-methylphenoxy) acetate]
Assay (% w/w) ([1]; 1 month storage, 0° C.): 34.61 % w/w | Assay (% w/w) ([1]; 1 month storage, 40° C.): 34.69 % w/w | Assay (% w/w) ([1]; 1 month storage, T/C): 34.68 % w/w | Assay (% w/w) ([1]; 1 month storage, −10° C.): 34.65 % w/w | Assay (% w/w) ([1]; 2 month storage, 0° C.): 34.82 % w/w | Assay (% w/w) ([1]; 2 month storage, 40° C.): 34.90 % w/w | Assay (% w/w) ([1]; 2 month storage, T/C): 34.94 % w/w | Assay (% w/w) ([1]; 2 month storage, −10° C.): 34.92 % w/w | Assay (% w/w) ([1]; 2 wks, 54° C.): 35.05 % w/w | Assay (% w/w) ([1]; 3 month storage, 0° C.): 35.25 % w/w | Assay (% w/w) ([1]; 3 month storage, 25° C.): 35.23 % w/w | Assay (% w/w) ([1]; 3 month storage, 40° C.): 35.28 % w/w | Assay (% w/w) ([1]; 3 month storage, T/C): 35.30 % w/w | Assay (% w/w) ([1]; 3 month storage, −10° C.): 35.36 % w/w | Assay (% w/w) ([1]; 6 month storage, 25° C.): 34.14 % w/w | Assay (% w/w) ([1]; 9 month storage, 25° C.): 34.73 % w/w | Assay (% w/w) ([1]; 12 month storage, 25° C.): 34.84 % w/w | Assay (% w/w) ([1]; F/T Sample): 35.06 % w/w | Assay (% w/w) ([1]; initial): 35.01 % w/w | Assay (% w/w) ([2]; 1 month storage, 0° C.): 33.65 % w/w | Recovery of active ingredient (% of initial assay) ([2]; 1 month storage, 0° C.): 99.88 % w/w | Assay (% w/w) ([2]; 1 month storage, 40° C.): 33.61 % w/w | Recovery of active ingredient (% of initial assay) ([2]; 1 month storage, 40° C.): 99.77 % w/w | Assay (% w/w) ([2]; 1 month storage, T/C): 33.64 % w/w | Recovery of active ingredient (% of initial assay) ([2]; 1 month storage, T/C): 99.85 % w/w | Assay (% w/w) ([2]; 2 month storage, 0° C.): 34.07 % w/w | Recovery of active ingredient (% of initial assay) ([2]; 2 month storage, 0° C.): 101.15 % w/w | Assay (% w/w) ([2]; 2 month storage, 40° C.): 33.84 % w/w | Recovery of active ingredient (% of initial assay) ([2]; 2 month storage, 40° C.): 100.47 % w/w | Assay (% w/w) ([2]; 2 month storage, T/C): 33.97 % w/w | Recovery of active ingredient (% of initial assay) ([2]; 2 month storage, T/C): 100.84 % w/w | Assay (% w/w) ([2]; 2 wks, 54° C.): 34.24 % w/w | Recovery of active ingredient (% of initial assay) ([2]; 2 wks, 54° C.): 101.65 % w/w | Assay (% w/w) ([2]; 3 month storage, 0° C.): 33.76 % w/w | Recovery of active ingredient (% of initial assay) ([2]; 3 month storage, 0° C.): 100.21 % w/w | Assay (% w/w) ([2]; 3 month storage, 25° C.): 33.64 % w/w | Recovery of active ingredient (% of initial assay) ([2]; 3 month storage, 25° C.): 99.86 % w/w | Assay (% w/w) ([2]; 3 month storage, 40° C.): 33.61 % w/w | Recovery of active ingredient (% of initial assay) ([2]; 3 month storage, 40° C.): 99.76 % w/w | Assay (% w/w) ([2]; 3 month storage, −10° C.): 33.41 % w/w | Recovery of active ingredient (% of initial assay) ([2]; 3 month storage, −10° C.): 99.20 % w/w | Assay (% w/w) ([2]; F/T sample): 34.30 % w/w | Recovery of active ingredient (% of initial assay) ([2]; F/T sample): 101.84 % w/w | Assay (% w/w) ([2]; Initial): 33.69 % w/w

CCCCCC(C)OC(=O)COc1ccc(Cl)c2cccnc12 (stereo not shown) [cloquintocet, Cloquintocet Mexyl]
Assay (% w/w) ([1]; 1 month storage, 0° C.): 0.41 % w/w | Assay (% w/w) ([1]; 1 month storage, 40° C.): 0.41 % w/w | Assay (% w/w) ([1]; 1 month storage, T/C): 0.41 % w/w | Assay (% w/w) ([1]; 1 month storage, −10° C.): 0.41 % w/w | Assay (% w/w) ([1]; 2 month storage, 0° C.): 0.41 % w/w | Assay (% w/w) ([1]; 2 month storage, 40° C.): 0.40 % w/w | Assay (% w/w) ([1]; 2 month storage, T/C): 0.40 % w/w | Assay (% w/w) ([1]; 2 month storage, −10° C.): 0.41 % w/w | Assay (% w/w) ([1]; 2 wks, 54° C.): 0.39 % w/w | Assay (% w/w) ([1]; 3 month storage, 0° C.): 0.41 % w/w | Assay (% w/w) ([1]; 3 month storage, 25° C.): 0.41 % w/w | Assay (% w/w) ([1]; 3 month storage, 40° C.): 0.40 % w/w | Assay (% w/w) ([1]; 3 month storage, T/C): 0.41 % w/w | Assay (% w/w) ([1]; 3 month storage, −10° C.): 0.42 % w/w | Assay (% w/w) ([1]; 6 month storage, 25° C.): 0.39 % w/w | Assay (% w/w) ([1]; 9 month storage, 25° C.): 0.39 % w/w | Assay (% w/w) ([1]; 12 month storage, 25° C.): 0.39 % w/w | Assay (% w/w) ([1]; F/T Sample): 0.41 % w/w | Assay (% w/w) ([1]; initial): 0.41 % w/w | Assay (% w/w) ([2]; 1 month storage, 0° C.): 0.35 % w/w | Recovery of active ingredient (% of initial assay) ([2]; 1 month storage, 0° C.): 100.15 % w/w | Assay (% w/w) ([2]; 1 month storage, 40° C.): 0.35 % w/w | Recovery of active ingredient (% of initial assay) ([2]; 1 month storage, 40° C.): 99.58 % w/w | Assay (% w/w) ([2]; 1 month storage, T/C): 0.35 % w/w | Recovery of active ingredient (% of initial assay) ([2]; 1 month storage, T/C): 99.83 % w/w | Assay (% w/w) ([2]; 2 month storage, 0° C.): 0.36 % w/w | Recovery of active ingredient (% of initial assay) ([2]; 2 month storage, 0° C.): 100.12 % w/w | Assay (% w/w) ([2]; 2 month storage, 40° C.): 0.35 % w/w | Recovery of active ingredient (% of initial assay) ([2]; 2 month storage, 40° C.): 100.02 % w/w | Assay (% w/w) ([2]; 2 month storage, T/C): 0.36 % w/w | Recovery of active ingredient (% of initial assay) ([2]; 2 month storage, T/C): 101.08 % w/w | Assay (% w/w) ([2]; 2 wks, 54° C.): 0.35 % w/w | Recovery of active ingredient (% of initial assay) ([2]; 2 wks, 54° C.): 100.70 % w/w | Assay (% w/w) ([2]; 3 month storage, 0° C.): 0.35 % w/w | Recovery of active ingredient (% of initial assay) ([2]; 3 month storage, 0° C.): 100.75 % w/w | Assay (% w/w) ([2]; 3 month storage, 25° C.): 0.35 % w/w | Recovery of active ingredient (% of initial assay) ([2]; 3 month storage, 25° C.): 100.17 % w/w | Assay (% w/w) ([2]; 3 month storage, 40° C.): 0.35 % w/w | Recovery of active ingredient (% of initial assay) ([2]; 3 month storage, 40° C.): 99.39 % w/w | Assay (% w/w) ([2]; 3 month storage, −10° C.): 0.35 % w/w | Recovery of active ingredient (% of initial assay) ([2]; 3 month storage, −10° C.): 99.59 % w/w | Assay (% w/w) ([2]; F/T sample): 0.36 % w/w | Recovery of active ingredient (% of initial assay) ([2]; F/T sample): 101.49 % w/w | Assay (% w/w) ([2]; Initial): 0.35 % w/w
